# Test results: patent US20200399262A1, “COMPOUNDS FOR INHIBITING PROTEIN DEGRADATION AND METHODS OF USE THEREOF IN THE TREATMENT OF CANCER” (PI Therapeutics Ltd, priority 2018, published 2020)
# Legend:
# Experiment in all cases: Cell viability panel, ATPlite 1Step
# Format in all cases: cell-based
# KLE = conditions: Homo sapiens, Endometrial adenocarcinoma, 72 h exposure, read-out: Compound EC50
# Procedure: (§1) Cell viability panel studies. Cells were diluted in the corresponding ATCC recommended medium and dispensed in a 384-well plate, depending on the cell line used, at a density of 200-6400 cells per well. For each used cell line, the optimal cell density was used. Compound was serially diluted and 8 concentration (0.04-32 μM) were added to the cells for 72 h exposure. At t=end, of ATPlite 1Step™ (PerkinElmer) were used to calculate cell viability. Cell lines marked with asterisk were seeded 24 h prior to treatment in 96-well plates at the density range of 5,000-40,000 cells/well, according to duplication rate, in RPMI 1640 medium containing 10% fetal bovine serum and 2 mM L-glutamine. Compounds were diluted from 10 mM DMSO stock and treatment was applied at the range of 0.04-1 μM. Following incubation at 37° C. for 48 hours with increasing concentrations of the compounds, viability was determined with CyQUANT® Direct Assay Kit (Invitrogen). Output intensities were normalized to values after treatment with DMSO alone, and EC50 values were calculated using the absorbance measurements [time zero, (Tz), growth control, (C), plus the test growth at the four drug concentration levels (Ti)] as follows: [(Ti−Tz)/(C−Tz)]×100 for concentrations for which Ti>/=Tz; [(Ti−Tz)/Tz]×100 for concentrations for which Ti−<Tz.
# LoVo = conditions: Homo sapiens, Colon adenocarcinoma, 72 h exposure, read-out: Compound EC50
# Procedure: as §1
# JAR = conditions: Gestational choriocarcinoma, 72 h exposure, read-out: Compound EC50
# Procedure: as §1
# HCT 116 = conditions: Homo sapiens, Colon carcinoma, 72 h exposure, read-out: Compound EC50
# Procedure: as §1
# J82 = conditions: Homo sapiens, Bladder carcinoma, 72 h exposure, read-out: Compound EC50
# Procedure: as §1
# A-704 = conditions: Homo sapiens, A704, Renal cell carcinoma, 72 h exposure, read-out: Compound EC50
# Procedure: as §1
# LS 174T = conditions: Homo sapiens, LS174T, Colon adenocarcinoma, 72 h exposure, read-out: Compound EC50
# Procedure: as §1
# G-361 = conditions: Homo sapiens, Melanoma, 72 h exposure, read-out: Compound EC50
# Procedure: as §1
# Hs 578T = conditions: Homo sapiens, Invasive ductal carcinoma, 72 h exposure, read-out: Compound EC50
# Procedure: as §1
# SK-N-FI = conditions: Homo sapiens, Neuroblastoma, 72 h exposure, read-out: Compound EC50
# Procedure: as §1
# SU-DHL-6 = conditions: Homo sapiens, Diffuse large B-cell lymphoma, 72 h exposure, read-out: Compound EC50
# Procedure: as §1
# A-204 = conditions: Homo sapiens, A204, Embryonal rhabdomyosarcoma, 72 h exposure, read-out: Compound EC50
# Procedure: as §1
# MCF7 = conditions: Homo sapiens, Invasive ductal carcinoma, 72 h exposure, read-out: Compound EC50
# Procedure: as §1
# CCRF-CEM = conditions: Homo sapiens, T acute lymphoblastic leukemia, 72 h exposure, read-out: Compound EC50
# Procedure: as §1
# KATO III = conditions: Homo sapiens, Signet ring cell gastric adenocarcinoma, 72 h exposure, read-out: Compound EC50
# Procedure: as §1
# FaDu = conditions: Homo sapiens, Hypopharyngeal squamous cell carcinoma, 72 h exposure, read-out: Compound EC50
# Procedure: as §1
# RS4-11 = conditions: Homo sapiens, B acute lymphoblastic leukemia, 72 h exposure, read-out: Compound EC50
# Procedure: as §1
# 769-P = conditions: Homo sapiens, Renal cell carcinoma, 72 h exposure, read-out: Compound EC50
# Procedure: as §1
# A-172 = conditions: Homo sapiens, Glioblastoma, 72 h exposure, read-out: Compound EC50
# Procedure: as §1
# KG-1 = conditions: Homo sapiens, Acute myeloid leukemia, 72 h exposure, read-out: Compound EC50
# Procedure: as §1
# SR = conditions: Homo sapiens, Anaplastic large cell lymphoma, 72 h exposure, read-out: Compound EC50
# Procedure: as §1
# NCI-H82 = conditions: Homo sapiens, Small cell lung carcinoma, 72 h exposure, read-out: Compound EC50
# Procedure: as §1
# T24 = conditions: Homo sapiens, T-24, Bladder carcinoma, 72 h exposure, read-out: Compound EC50
# Procedure: as §1
# SUP-T1 = conditions: Homo sapiens, T lymphoblastic lymphoma, 72 h exposure, read-out: Compound EC50
# Procedure: as §1
# SW480 = conditions: Homo sapiens, Colon adenocarcinoma, 72 h exposure, read-out: Compound EC50
# Procedure: as §1
# SNU-5 = conditions: Homo sapiens, Gastric carcinoma, 72 h exposure, read-out: Compound EC50
# Procedure: as §1
# COLO 205 = conditions: Homo sapiens, Colon adenocarcinoma, 72 h exposure, read-out: Compound EC50
# Procedure: as §1
# A388 = conditions: Squamous cell carcinoma, 72 h exposure, read-out: Compound EC50
# Procedure: as §1
# RL = conditions: Homo sapiens, Diffuse large B-cell lymphoma, 72 h exposure, read-out: Compound EC50
# Procedure: as §1
# T98G = conditions: Homo sapiens, Glioblastoma, 72 h exposure, read-out: Compound EC50
# Procedure: as §1
smiles,measurement,setting,value
CN(C)CCCS(=O)(=O)N1C/C(=C\c2ccc(C#N)cc2)C(=O)/C(=C/c2ccc(C#N)cc2)C1 [Compound AA],EC50,KLE,≥ 1000 nM
same,EC50,LoVo,< 300 nM
same,EC50,JAR,< 300 nM
same,EC50,HCT 116,< 300 nM
same,EC50,J82,300 to 1000 nM
same,EC50,A-704,300 to 1000 nM
same,EC50,LS 174T,< 300 nM
same,EC50,G-361,< 300 nM
same,EC50,Hs 578T,< 300 nM
same,EC50,SK-N-FI,< 300 nM
same,EC50,SU-DHL-6,< 300 nM
same,EC50,A-204,< 300 nM
same,EC50,MCF7,≥ 1000 nM
same,EC50,CCRF-CEM,< 300 nM
same,EC50,KATO III,300 to 1000 nM
same,EC50,FaDu,< 300 nM
same,EC50,RS4-11,< 300 nM
same,EC50,769-P,< 300 nM
same,EC50,A-172,< 300 nM
same,EC50,KG-1,< 300 nM
same,EC50,SR,< 300 nM
same,EC50,NCI-H82,< 300 nM
same,EC50,T24,< 300 nM
same,EC50,SUP-T1,< 300 nM
same,EC50,SW480,< 300 nM
same,EC50,SNU-5,300 to 1000 nM
same,EC50,COLO 205,< 300 nM
same,EC50,A388,< 300 nM
same,EC50,RL,< 300 nM
same,EC50,T98G,300 to 1000 nM
